From paper PMC5791972 (PLoS ONE, 2018)
Several values for one entry are separate records, joined by “and”; a condition that tells them apart may be missing. Equal values may be shown once. Starred links: 1 amine or outer side, 2 acyl side, 3 side chain; linkers in the order of their positions; H or OH if unused. Positions of bridges follow the written chain, without caps; N, C: chain ends. Residues, ends and D or L forms follow the SMILES beside them. X1 = O=C(CC1(S[*:2])CCCCC1)[*:1]

Experiments:
GABAB(1b) (h) = GABAB(1b) (h) (Homo sapiens, UniProt Q9UBS5)
MMP-9 (h) = MMP-9 (h) (Homo sapiens, UniProt P14780); test: biochemical; type: biochemical
BLT1 (LTB4) (h) = biological target: T1, BLT1 (LTB4) (h) (Homo sapiens, UniProt Q15722); type: binding
T1 construct: host or cells: CHO cells

5-HT3 (h) = biological target: T2, 5-HT3 (h) (Homo sapiens, UniProt P46098)
T2 sequence (P46098 24-478): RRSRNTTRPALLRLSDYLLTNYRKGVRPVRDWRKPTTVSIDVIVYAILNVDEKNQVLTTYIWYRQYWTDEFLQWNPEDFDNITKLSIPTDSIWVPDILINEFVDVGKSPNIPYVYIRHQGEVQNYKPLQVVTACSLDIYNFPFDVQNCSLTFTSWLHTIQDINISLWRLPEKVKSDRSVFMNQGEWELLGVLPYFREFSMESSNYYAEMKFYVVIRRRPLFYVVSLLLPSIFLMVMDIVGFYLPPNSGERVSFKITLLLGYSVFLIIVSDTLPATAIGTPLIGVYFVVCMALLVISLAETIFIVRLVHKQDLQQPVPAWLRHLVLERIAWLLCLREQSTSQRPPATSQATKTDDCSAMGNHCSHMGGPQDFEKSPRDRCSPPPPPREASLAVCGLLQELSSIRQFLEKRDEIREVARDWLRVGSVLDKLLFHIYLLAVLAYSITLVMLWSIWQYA

NMRI mice = test: Locomotor activity; type: in vivo, mouse; details: 5 mg/kg subcutaneously
Procedure: NMRI mice were habituated to their room for at least 2 weeks after the delivery and kept under standard conditions in groups of 4–5 animals per cage. Food and water were available ad libitum.
Spontaneous motility and rearing were measured by an automated system (Coulbourn Instruments, USA). Animals were introduced into transparent square cages (40 cm length) that are equipped with 2 light barrier systems in order to monitor the movements as well as rearing behavior automatically. The movements of the animals were recorded for 30 minutes. At the end of the experiment, the animals were sacrificed via isofluorane inhalation and subsequent decapitation.

p38α kinase (h) = p38α kinase (h) (Homo sapiens, UniProt Q16539); test: enzyme assay; type: biochemical
V1a (h) = biological target: T3, V1a (h) (Homo sapiens, UniProt P37288); type: binding
T3 construct: host or cells: CHO cells

H2 (h) = biological target: T4, H2 (h) (Homo sapiens, UniProt P25021); type: binding
T4 construct: host or cells: CHO cells

[1] = biological target: Ca2+ channel (L, diltiazem site) (benzothiazepines) (Rattus norvegicus, UniProt P22002); type: binding
PDE5 (h) (non-selective) = PDE5 (h) (non-selective) (Homo sapiens, UniProt O76074)
5-HT transporter (h) = biological target: T5, 5-HT transporter (h) (Homo sapiens, UniProt P31645); type: binding
T5 construct: host or cells: CHO cells

CD-1 mice = test: Forced swim test; details: 20 mg/kg IP, 45 min prior, CD-1 mice
5-HT2A (h) = biological target: T6, 5-HT2A (h) (Homo sapiens, UniProt P28223); type: binding
T6 construct: host or cells: HEK-293 cells

MT1 (ML1A) (h) = biological target: T7, MT1 (ML1A) (h) (Homo sapiens, UniProt P48039); type: binding
T7 construct: host or cells: CHO cells

MT3 (ML2) = biological target: T8, MT3 (ML2) (Mesocricetus auratus, UniProt A0ABM2YAB8); type: binding, hamster
T8 construct: tissue Cerep; host or cells: hamster brain
T8 sequence (A0ABM2YAB8 1-231): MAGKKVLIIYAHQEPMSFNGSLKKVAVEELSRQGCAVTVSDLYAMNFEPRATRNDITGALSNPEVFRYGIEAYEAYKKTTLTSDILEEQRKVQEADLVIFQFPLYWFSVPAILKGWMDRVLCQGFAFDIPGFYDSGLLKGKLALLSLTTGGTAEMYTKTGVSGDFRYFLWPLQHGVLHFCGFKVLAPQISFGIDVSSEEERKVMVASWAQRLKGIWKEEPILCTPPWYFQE

M2 (h) = biological target: T9, M2 (h) (Homo sapiens, UniProt P08172)
T9 sequence (P08172 1-466): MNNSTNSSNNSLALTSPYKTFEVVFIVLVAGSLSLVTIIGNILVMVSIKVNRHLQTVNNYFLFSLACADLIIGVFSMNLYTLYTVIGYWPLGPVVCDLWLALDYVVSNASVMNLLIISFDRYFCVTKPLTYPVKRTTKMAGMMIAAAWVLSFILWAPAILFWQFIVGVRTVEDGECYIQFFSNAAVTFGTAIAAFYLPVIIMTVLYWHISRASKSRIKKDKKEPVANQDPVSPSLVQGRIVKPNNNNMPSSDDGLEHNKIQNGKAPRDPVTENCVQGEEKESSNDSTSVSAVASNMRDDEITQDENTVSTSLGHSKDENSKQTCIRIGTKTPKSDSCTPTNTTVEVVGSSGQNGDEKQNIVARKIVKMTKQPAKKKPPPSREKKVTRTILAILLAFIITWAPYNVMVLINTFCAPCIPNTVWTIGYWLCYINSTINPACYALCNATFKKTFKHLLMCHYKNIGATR

PDE3A (h) = PDE3A (h) (Homo sapiens, UniProt Q14432); test: biochemical
ATPase (Na+/K+) = test: enzyme assay; type: biochemical, porcine
ZAP70 kinase (h) = biological target: T10, ZAP70 kinase (h) (Homo sapiens, UniProt P43403); test: biochemical
T10 construct: host or cells: insect cells
T10 sequence (P43403 1-619): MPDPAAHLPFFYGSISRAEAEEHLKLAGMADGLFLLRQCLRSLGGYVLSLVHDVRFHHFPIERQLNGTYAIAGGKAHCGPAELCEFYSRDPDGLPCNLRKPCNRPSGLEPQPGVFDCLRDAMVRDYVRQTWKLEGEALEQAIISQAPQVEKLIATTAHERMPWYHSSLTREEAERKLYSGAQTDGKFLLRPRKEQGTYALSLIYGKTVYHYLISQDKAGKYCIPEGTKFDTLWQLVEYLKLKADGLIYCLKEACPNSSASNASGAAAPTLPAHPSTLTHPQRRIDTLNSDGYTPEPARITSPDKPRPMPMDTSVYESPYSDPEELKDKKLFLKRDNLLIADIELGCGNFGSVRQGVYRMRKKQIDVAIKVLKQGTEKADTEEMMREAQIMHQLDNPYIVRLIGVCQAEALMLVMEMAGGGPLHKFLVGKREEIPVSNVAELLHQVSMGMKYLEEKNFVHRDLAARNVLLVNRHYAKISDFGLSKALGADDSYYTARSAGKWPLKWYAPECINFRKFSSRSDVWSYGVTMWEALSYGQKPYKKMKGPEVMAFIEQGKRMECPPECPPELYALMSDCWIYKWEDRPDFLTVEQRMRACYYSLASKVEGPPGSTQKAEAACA

[2] = biological target: T11, FLT-1 kinase (h) (VEGFR1) (Homo sapiens, UniProt P17948); test: enzyme assay; type: biochemical
T11 construct: host or cells: Sf9 cells

Ca2+ channel (N) = Ca2+ channel (N) (Rattus norvegicus, UniProt Q02294); test: biochemical; type: binding
D2S (h) = D2S (h) (Homo sapiens, UniProt P14416)
Chain of D2S (h) (P14416 1-414 isoform P14416-2): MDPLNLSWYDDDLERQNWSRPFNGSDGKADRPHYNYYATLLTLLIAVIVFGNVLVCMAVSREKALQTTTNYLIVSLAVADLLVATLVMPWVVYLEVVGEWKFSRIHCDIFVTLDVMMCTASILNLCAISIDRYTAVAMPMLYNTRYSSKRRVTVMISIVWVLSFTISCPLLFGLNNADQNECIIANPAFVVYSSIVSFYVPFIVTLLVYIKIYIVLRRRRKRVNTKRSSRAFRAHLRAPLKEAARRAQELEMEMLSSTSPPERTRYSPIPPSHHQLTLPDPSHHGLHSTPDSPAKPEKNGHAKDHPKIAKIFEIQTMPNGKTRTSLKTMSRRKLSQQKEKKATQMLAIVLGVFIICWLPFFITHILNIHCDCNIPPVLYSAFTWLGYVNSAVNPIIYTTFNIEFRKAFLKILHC

T6 sequence (P28223 whole entry): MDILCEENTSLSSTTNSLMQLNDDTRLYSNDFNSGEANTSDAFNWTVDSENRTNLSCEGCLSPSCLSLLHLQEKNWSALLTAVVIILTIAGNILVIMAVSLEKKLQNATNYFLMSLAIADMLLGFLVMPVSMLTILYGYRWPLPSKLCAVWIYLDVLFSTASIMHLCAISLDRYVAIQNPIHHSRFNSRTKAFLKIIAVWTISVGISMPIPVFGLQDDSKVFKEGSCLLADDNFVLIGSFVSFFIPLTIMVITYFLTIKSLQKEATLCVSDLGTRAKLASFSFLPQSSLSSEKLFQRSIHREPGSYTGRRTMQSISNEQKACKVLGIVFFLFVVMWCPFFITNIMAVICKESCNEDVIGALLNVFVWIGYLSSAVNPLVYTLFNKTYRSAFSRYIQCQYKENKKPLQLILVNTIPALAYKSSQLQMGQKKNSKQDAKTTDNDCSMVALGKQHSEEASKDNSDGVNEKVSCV
Chain of Ca2+ channel (L, diltiazem site) (benzothiazepines) (P22002 whole entry): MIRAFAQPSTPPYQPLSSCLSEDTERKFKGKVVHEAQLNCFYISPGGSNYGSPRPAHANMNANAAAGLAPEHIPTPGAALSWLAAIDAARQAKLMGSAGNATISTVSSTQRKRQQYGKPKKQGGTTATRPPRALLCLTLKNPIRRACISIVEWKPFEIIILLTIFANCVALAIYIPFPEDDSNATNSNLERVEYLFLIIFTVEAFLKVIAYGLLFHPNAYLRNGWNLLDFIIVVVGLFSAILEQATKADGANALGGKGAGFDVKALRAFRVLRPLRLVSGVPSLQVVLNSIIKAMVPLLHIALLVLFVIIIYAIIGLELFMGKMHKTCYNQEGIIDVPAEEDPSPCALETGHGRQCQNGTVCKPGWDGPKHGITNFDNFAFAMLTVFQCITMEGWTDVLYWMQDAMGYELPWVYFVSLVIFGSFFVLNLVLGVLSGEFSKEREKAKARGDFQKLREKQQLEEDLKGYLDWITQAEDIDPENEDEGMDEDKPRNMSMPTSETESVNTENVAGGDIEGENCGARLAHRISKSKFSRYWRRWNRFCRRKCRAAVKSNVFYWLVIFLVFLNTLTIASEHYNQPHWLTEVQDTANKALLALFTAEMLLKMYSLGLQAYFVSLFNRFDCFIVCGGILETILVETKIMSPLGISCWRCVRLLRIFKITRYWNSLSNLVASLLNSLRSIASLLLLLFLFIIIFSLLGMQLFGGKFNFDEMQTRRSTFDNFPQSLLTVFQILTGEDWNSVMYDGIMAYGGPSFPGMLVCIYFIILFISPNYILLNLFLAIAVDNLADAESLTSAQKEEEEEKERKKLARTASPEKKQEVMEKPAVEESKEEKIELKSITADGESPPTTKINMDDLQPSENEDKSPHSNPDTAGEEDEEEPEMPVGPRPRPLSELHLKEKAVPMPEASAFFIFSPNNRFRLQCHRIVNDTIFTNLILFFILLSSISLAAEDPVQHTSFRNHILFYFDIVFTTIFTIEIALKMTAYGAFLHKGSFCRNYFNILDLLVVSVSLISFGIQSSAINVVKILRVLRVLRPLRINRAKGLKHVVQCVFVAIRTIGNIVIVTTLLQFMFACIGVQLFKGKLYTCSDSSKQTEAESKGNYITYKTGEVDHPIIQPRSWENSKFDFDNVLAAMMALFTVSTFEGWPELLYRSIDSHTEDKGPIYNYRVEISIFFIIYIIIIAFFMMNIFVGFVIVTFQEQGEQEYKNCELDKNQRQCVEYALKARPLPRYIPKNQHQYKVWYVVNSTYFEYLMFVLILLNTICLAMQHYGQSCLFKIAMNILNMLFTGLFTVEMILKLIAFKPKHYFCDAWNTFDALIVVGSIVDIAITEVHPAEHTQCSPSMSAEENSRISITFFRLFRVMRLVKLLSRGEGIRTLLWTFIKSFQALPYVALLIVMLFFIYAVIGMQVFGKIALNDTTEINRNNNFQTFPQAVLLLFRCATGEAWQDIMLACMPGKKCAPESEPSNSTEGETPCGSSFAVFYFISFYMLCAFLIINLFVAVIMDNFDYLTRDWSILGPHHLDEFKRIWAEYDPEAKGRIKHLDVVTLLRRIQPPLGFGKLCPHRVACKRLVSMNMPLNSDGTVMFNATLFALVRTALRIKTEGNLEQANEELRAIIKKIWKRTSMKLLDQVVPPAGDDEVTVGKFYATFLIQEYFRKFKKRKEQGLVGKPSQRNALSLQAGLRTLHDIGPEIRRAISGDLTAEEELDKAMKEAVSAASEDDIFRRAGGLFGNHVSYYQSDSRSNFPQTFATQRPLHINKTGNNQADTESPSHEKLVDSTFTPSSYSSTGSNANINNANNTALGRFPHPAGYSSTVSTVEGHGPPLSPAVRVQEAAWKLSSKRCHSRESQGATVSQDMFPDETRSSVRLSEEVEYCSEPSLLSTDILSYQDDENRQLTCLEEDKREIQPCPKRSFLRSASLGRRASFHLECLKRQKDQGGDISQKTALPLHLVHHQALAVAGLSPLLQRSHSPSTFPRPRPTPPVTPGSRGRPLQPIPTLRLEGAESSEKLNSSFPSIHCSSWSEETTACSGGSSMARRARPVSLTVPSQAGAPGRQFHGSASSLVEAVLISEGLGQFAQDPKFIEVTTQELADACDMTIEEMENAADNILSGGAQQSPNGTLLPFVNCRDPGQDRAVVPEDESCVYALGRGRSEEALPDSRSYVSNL
Chain of MMP-9 (h) (P14780 94-707): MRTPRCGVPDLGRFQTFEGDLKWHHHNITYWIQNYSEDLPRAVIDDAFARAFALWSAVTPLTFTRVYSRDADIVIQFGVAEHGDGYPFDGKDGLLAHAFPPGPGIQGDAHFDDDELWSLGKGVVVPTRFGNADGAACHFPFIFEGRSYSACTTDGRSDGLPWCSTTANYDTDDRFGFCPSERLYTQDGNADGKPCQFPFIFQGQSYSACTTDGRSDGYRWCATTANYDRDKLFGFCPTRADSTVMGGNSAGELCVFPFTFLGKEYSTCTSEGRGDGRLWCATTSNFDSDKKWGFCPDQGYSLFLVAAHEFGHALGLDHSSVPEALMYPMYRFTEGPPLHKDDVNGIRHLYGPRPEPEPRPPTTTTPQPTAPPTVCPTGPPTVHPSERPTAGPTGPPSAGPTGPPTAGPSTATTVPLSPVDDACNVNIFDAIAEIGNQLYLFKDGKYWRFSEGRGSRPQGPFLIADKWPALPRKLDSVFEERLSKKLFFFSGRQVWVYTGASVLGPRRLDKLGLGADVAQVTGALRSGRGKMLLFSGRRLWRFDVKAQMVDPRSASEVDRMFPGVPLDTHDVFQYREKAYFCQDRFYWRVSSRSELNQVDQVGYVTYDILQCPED
T1 sequence (Q15722 whole entry): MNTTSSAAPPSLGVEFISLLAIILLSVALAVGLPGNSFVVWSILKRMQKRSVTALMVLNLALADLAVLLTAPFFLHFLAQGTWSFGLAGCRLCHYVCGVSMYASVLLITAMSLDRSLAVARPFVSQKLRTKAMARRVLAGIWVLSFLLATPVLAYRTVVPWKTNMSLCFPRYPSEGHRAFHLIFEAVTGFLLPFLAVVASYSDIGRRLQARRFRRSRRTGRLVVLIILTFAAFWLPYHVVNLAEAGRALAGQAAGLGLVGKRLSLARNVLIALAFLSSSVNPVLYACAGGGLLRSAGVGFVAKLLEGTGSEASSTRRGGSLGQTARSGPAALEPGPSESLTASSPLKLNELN
T4 sequence (P25021 whole entry): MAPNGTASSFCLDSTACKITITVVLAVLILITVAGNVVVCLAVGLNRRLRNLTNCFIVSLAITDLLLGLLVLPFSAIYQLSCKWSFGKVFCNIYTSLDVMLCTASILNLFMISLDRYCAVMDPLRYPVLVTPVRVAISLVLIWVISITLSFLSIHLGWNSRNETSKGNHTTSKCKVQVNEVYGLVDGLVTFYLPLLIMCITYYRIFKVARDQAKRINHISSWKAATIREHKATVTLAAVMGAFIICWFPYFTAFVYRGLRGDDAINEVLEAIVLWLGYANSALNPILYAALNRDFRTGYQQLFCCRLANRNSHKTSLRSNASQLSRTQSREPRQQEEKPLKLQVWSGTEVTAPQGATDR
T3 sequence (P37288 whole entry): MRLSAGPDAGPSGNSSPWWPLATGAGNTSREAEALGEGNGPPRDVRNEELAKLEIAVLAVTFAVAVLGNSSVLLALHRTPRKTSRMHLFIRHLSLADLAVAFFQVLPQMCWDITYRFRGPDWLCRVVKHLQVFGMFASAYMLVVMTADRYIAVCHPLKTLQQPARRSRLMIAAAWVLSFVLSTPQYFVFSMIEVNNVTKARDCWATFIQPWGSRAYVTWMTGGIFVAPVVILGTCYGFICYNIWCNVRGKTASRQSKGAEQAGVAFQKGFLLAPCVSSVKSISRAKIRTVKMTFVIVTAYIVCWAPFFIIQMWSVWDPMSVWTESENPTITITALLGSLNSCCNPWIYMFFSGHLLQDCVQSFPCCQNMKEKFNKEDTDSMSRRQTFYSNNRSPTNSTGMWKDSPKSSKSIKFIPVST

`C[C@H](NC[C@H](O)CP(=O)(O)CC1CCCCC1)c1ccc(Cl)c(Cl)c1` [CGP 54626] was tested, and the nH (GABAB(1b) (h)) was 0.9.

`CNC(=O)[C@H](Cc1c[nH]c2ccccc12)NC(=O)[C@@H](CC(=O)NO)CC(C)C` [GM6001, reference compound] gave a nH (MMP-9 (h)) of 1.6.

Compound `CCCCC/C=C\C[C@@H](O)/C=C/C=C/C=C\[C@@H](O)CCCC(=O)O` [LTB4, reference compound] has a nH (BLT1 (LTB4) (h)) of 0.8.

With `CN1[C@@H]2CC[C@H]1C[C@@H](OC(=O)c1cc(Cl)cc(Cl)c1)C2` [MDL 72222] the nH (5-HT3 (h)) was 1.1.

In the case of `c1ccc(C2(N3CCCCC3)CCCCC2)cc1` [PCP, Phencyclidine, reference compound], the locomotor activity (NMRI mice) is reported as “substantially increased activity”.

For `Oc1ccc(-c2nc(-c3ccncc3)c(-c3ccc(F)cc3)[nH]2)cc1` [SB202190, reference compound], the nH (p38α kinase (h)) was 1.4.

`COc1ccc(C[C@@H]2NC(=O)CC3(CCCCC3)SSC[C@@H](C(=O)N3CCC[C@H]3C(=O)N[C@@H](CCCNC(=N)N)C(=O)NCC(N)=O)NC(=O)[C@H](CC(N)=O)NC(=O)[C@H](CCC(N)=O)NC(=O)[C@H](Cc3ccccc3)NC2=O)cc1` [[d(CH2)51,Tyr(Me)2]-AVP, reference compound] (Y(Me)FQNCPRG-NH2; linker N-5 via X1 (inferred)) showed a nH (V1a (h)) of 0.9.

For `CN/C(=N/CCSCc1nc[nH]c1C)NC#N` [cimetidine, reference compound], the nH (H2 (h)) was 0.9.

`COc1ccc([C@@H]2Sc3ccccc3N(CCN(C)C)C(=O)[C@@H]2OC(C)=O)cc1` [diltiazem, reference compound] gave a nH [1] of 1.2.

In the case of `OCCN(CCO)c1nc(N2CCCCC2)c2nc(N(CCO)CCO)nc(N3CCCCC3)c2n1` [dipyridamole], the nH (PDE5 (h) (non-selective)) is reported as 1.7 and 1.0.

In the case of `CN(C)CCCN1c2ccccc2CCc2ccccc21` [imipramine, reference compound], the nH (5-HT transporter (h)) is reported as 0.9 and the immobility time (CD-1 mice) is reported as “decreased immobility time”.

`O=C(c1ccc(F)cc1)C1CCN(CCn2c(=O)[nH]c3ccccc3c2=O)CC1` [ketanserin, reference compound] showed a nH (5-HT2A (h)) of 1.4.

For `COc1ccc2[nH]cc(CCNC(C)=O)c2c1` [melatonin, reference compound], the nH (MT1 (ML1A) (h)) was 1.0, the IC50 (MT3 (ML2)) was 38 nM and 260 nM and the Ki (MT3 (ML2)) was 37 nM and 250 nM.

For `COc1ccccc1CNCCCCCCNCCCCCCCCNCCCCCCNCc1ccccc1OC` [methoctramine], the nH (M2 (h)) was 0.9.

`Cc1[nH]c(=O)c(C#N)cc1-c1ccncc1` [milrinone, reference compound] showed a nH (PDE3A (h)) of 1.0.

Compound `C[C@@H]1O[C@@H](O[C@H]2C[C@@H](O)[C@]3(CO)[C@H]4[C@H](O)C[C@]5(C)[C@@H](C6=CC(=O)OC6)CC[C@]5(O)[C@@H]4CC[C@]3(O)C2)[C@H](O)[C@H](O)[C@H]1O` [ouabain, reference compound] has an IC50 (ATPase (Na+/K+)) of 1200 nM.

`CN[C@@H]1C[C@H]2O[C@@](C)([C@@H]1OC)n1c3ccccc3c3c4c(c5c6ccccc6n2c5c31)C(=O)NC4` [staurosporine, reference compound] showed a nH (ZAP70 kinase (h)) of 1.2 and a nH [2] of 1.4.

With `C[C@@H](O)[C@@H]1NC(=O)[C@H](Cc2ccc(O)cc2)NC(=O)[C@@H]2C[C@@H](O)CN2C(=O)[C@H](CC(N)=O)NC(=O)[C@@H]2CSSC[C@@H]3NC(=O)[C@H](CO)NC(=O)[C@H](CO)NC(=O)CNC(=O)[C@@H]4C[C@@H](O)CN4C(=O)[C@H](CO)NC(=O)[C@H](CCCCN)NC(=O)[C@@H](N)CSSC[C@H](NC(=O)[C@H](CSSC[C@@H](C(=O)N[C@@H](Cc4ccc(O)cc4)C(N)=O)NC(=O)[C@H](CCCN=C(N)N)NC(=O)[C@H](CCCCN)NC1=O)NC(=O)[C@H](CC(N)=O)NC(=O)[C@H](Cc1ccc(O)cc1)NC(=O)[C@H](CO)NC(=O)[C@H]([C@@H](C)O)NC(=O)[C@@H]1C[C@@H](O)CN1C(=O)[C@H](CO)NC3=O)C(=O)N[C@@H](CCCN=C(N)N)C(=O)N[C@@H](CO)C(=O)N2` [ω-conotoxin GVIA, reference compound] the IC50 (Ca2+ channel (N)) was 1.2 pM.

Compound (+)butaclamol has a nH (D2S (h)) of 1.1.
